Assay results as given in the supplement of paper PMC11451515.

Columns and labels:
Conditions in all cases: 48 h
P12-Ichikawa [1] = assay: cell viability relative to DMSO control; higher = less cytotoxic
Method in brief: (§1)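 Viability was expressed as a per-plate percentage of DMSO wells, with cell-free wells as background. Leukemia cells (NOMO1 or SEM at 500 cells/well, P12-Ichikawa at 1000 cells/well) were adapted for at least four passages in each medium and seeded in 1536-well plates (5 μl). Library compounds in DMSO were pin-dosed over an 11-point threefold series from 47 μM to 0.79 nM, and CellTiter-Glo One luminescence was read after 48 h at 37°C.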

SEM cells [2] = assay: as above
Method in brief: as §1

NOMO1 [3] = assay: as above
Method in brief: as §1

P12-Ichikawa [4] = assay: AUC of viability dose-response curve (% viability x log10 dose units); higher = less sensitive
Method in brief: (§2)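 In 1536-well plates, leukemia cells adapted to each medium (500 or 1000 cells/well) were exposed for 48 h at 37°C to library compounds in DMSO across 11 threefold doses, 47 μM down to 0.79 nM. Viability was read by CellTiter-Glo One luminescence and normalised per plate to DMSO and cell-free wells. A four-parameter log-logistic fit over log10 doses was integrated by trapezoidal rule. This yielded the area under the curve, with over-full-viability curves scaled and quality-control failures dropped.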

NOMO1 [5] = assay: as above
Method in brief: as §2

SEM cells [6] = assay: as above
Method in brief: as §2

NNC(=O)c1ccncc1
cell viability [%]
Conditions	NOMO1 [3]	P12-Ichikawa [1]	SEM cells [2]
HPLM + 10% dialyzed FBS, 0.000781 µM	90.3	111	84.6
HPLM + 10% dialyzed FBS, 0.00234 µM	99.2	124	79.5
HPLM + 10% dialyzed FBS, 0.00702 µM	117	119	73.6
HPLM + 10% dialyzed FBS, 0.0211 µM	123	121	92.9
HPLM + 10% dialyzed FBS, 0.0632 µM	121	121	93.8
HPLM + 10% dialyzed FBS, 0.19 µM	124	127	86.6
HPLM + 10% dialyzed FBS, 0.569 µM	125	127	29.2
HPLM + 10% dialyzed FBS, 1.71 µM	123	117	42.5
HPLM + 10% dialyzed FBS, 5.12 µM	137	101	95.7
HPLM + 10% dialyzed FBS, 15.4 µM	131	103	92.3
HPLM + 10% dialyzed FBS, 46.1 µM	123	85.7	82.4
RPMI 5 mM glucose + 10% FBS, 0.000781 µM	108	106	107
RPMI 5 mM glucose + 10% FBS, 0.00234 µM	111	107	98.6
RPMI 5 mM glucose + 10% FBS, 0.00702 µM	114	111	97.2
RPMI 5 mM glucose + 10% FBS, 0.0211 µM	109	124	98.7
RPMI 5 mM glucose + 10% FBS, 0.0632 µM	122	111	116
RPMI 5 mM glucose + 10% FBS, 0.19 µM	135	114	115
RPMI 5 mM glucose + 10% FBS, 0.569 µM	123	122	37.3
RPMI 5 mM glucose + 10% FBS, 1.71 µM	115	120	46.7
RPMI 5 mM glucose + 10% FBS, 5.12 µM	128	116	91.6
RPMI 5 mM glucose + 10% FBS, 15.4 µM	119	107	94.9
RPMI 5 mM glucose + 10% FBS, 46.1 µM	130	84.7	87.6
RPMI 5 mM glucose + 10% dialyzed FBS, 0.000781 µM	120	115	107
RPMI 5 mM glucose + 10% dialyzed FBS, 0.00234 µM	117	122	110
RPMI 5 mM glucose + 10% dialyzed FBS, 0.00702 µM	110	113	92.4
RPMI 5 mM glucose + 10% dialyzed FBS, 0.0211 µM	117	119	97.2
RPMI 5 mM glucose + 10% dialyzed FBS, 0.0632 µM	119	116	98.1
RPMI 5 mM glucose + 10% dialyzed FBS, 0.19 µM	118	127	105
RPMI 5 mM glucose + 10% dialyzed FBS, 0.569 µM	119	118	37.2
RPMI 5 mM glucose + 10% dialyzed FBS, 1.71 µM	126	121	34.9
RPMI 5 mM glucose + 10% dialyzed FBS, 5.12 µM	124	103	101
RPMI 5 mM glucose + 10% dialyzed FBS, 15.4 µM	126	108	95.6
RPMI 5 mM glucose + 10% dialyzed FBS, 46.1 µM	125	76.2	82.8

AUC of viability dose-response curve
Conditions	HPLM + 10% dialyzed FBS	RPMI 5 mM glucose + 10% FBS	RPMI 5 mM glucose + 10% dialyzed FBS
NOMO1 [5]	454	444	456
P12-Ichikawa [4]	453	468	460

CO[C@H]1O[C@@H]2O[C@@]3(C)CC[C@H]4[C@H](C)CC[C@@H]([C@H]1C)[C@@]24OO3
AUC of viability dose-response curve
Conditions	NOMO1 [5]	P12-Ichikawa [4]	SEM cells [6]
HPLM + 10% dialyzed FBS	436	433	429
RPMI 5 mM glucose + 10% FBS	433	430	456
RPMI 5 mM glucose + 10% dialyzed FBS	405	417	451
